We go through two compounds from publication PMC12865225 (Clinical and Translational Science, 2026).

A word on the IC50: it is the midpoint of a concentration-inhibition curve.

Where “and” joins values, the source holds several entries; their conditions need not be identical. Equal values may be shown once. Marks after values point to notes of the source that are not given here.

Series [1] addresses T1, OAT4 (Homo sapiens, UniProt Q9NSA0).
T1 construct: expressed in transfected cells; host or cells: HEK293 (recombinant baculovirus-mediated transduction)
T1 sequence (Q9NSA0 1-550): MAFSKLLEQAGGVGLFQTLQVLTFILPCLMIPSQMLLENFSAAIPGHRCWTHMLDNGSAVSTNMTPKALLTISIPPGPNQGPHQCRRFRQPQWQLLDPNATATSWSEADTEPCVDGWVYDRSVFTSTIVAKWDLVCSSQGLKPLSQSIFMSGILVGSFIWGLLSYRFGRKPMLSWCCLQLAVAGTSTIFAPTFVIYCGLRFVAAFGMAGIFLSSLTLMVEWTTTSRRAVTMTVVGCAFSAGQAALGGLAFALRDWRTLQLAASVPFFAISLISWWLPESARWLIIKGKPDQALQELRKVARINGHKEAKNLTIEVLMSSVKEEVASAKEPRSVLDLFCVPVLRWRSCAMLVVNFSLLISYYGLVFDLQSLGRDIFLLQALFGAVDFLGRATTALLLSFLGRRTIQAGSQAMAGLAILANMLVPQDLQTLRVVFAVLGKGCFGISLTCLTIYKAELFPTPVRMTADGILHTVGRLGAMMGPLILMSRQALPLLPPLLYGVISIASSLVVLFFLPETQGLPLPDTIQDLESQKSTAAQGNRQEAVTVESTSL
Briefly: OAT4 inhibition, methotrexate uptake into HEK293 cells. Format: cell-based. Conditions: for Calculated R-value OAT4: R = I max,u/IC50, cut-off ≥ 0.02 (MATE threshold). Here is the method:
The human transporters OATP1B1, OATP1B3, OATP2B1, and OAT1‐OAT4 and a negative control protein (enhanced yellow fluorescent protein, eYFP) were transiently expressed in human embryonic kidney 293 (HEK293) cells by recombinant baculovirus‐mediated transduction. Baculoviruses carrying human genes for the transporters were prepared as reported previously. HEK293 cells were cultured in DMEM containing 10% fetal bovine serum at 37°C and 5% CO2 and passaged two to three times per week. For the transport studies, 0.05 × 10^6 cells for 48‐well plates (OATPs) or 0.06 × 10^6 cells for 24‐well plates (OATs) were seeded onto cell‐culture treated well plates coated with poly‐D‐lysine. After 1 day, cells were transduced to produce recombinant proteins by changing media to DMEM containing 30 μL (48‐well plates) or 60 μL (24‐well plates) of recombinant baculovirus and 3 mM (OATs) or 5 mM (OATPs) sodium butyrate in a total media volume of 500 μL. The cells were cultured for a further 2 days before the transport assays.
For the transport studies, media were removed and cells were washed once with warm transport uptake buffer (TP‐buffer—pH 7.4 HBSS with 25 mM HEPES and 4 mM sodium bicarbonate). Each experiment included triplicate (OATP) or duplicate (OAT) samples for every test condition. […]
In the OATP inhibition assays, inhibitors in warm TP‐buffer were directly applied to cells after media removal, followed by a 30‐min preincubation step in the presence of inhibitors. […] OAT1 and OAT3 cells were lysed with 200 μL of 1 M sodium hydroxide for 10 min, and 150 μL of these samples were transferred to a black well plate for fluorescein quantification. […]
For the inhibition data analysis, the average of measured concentrations in the control cells was subtracted from the average of measured concentrations in transporter‐expressing cells for each inhibitor concentration and then normalized to the vehicle sample that represents 100% transport activity. […]

The target in series [2] is T2, P-gp (Homo sapiens, UniProt P08183).
T2 construct: made in house; host or cells: membrane vesicles from HEK293 cells expressing the transporter
Put plainly: Efflux transport assay in P-gp HEK293 membrane vesicles. The format is biochemical. The conditions noted are these: 5 and 50 µM, 10 min. Here is the method:
Membrane vesicles, 5 μL (7.5 μg of total protein), prepared as previously reported, were aliquoted to wells of a conical‐shaped 96‐well plate. The plate was incubated for 10 min at +37°C before the initiation of transport by adding 25 μL of TS‐buffer (10 mM Tris, 250 mM sucrose, pH adjusted to 7.4 with HEPES) containing magnesium chloride (10 mM final in the reaction), adenosine triphosphate (ATP) or adenosine monophosphate (AMP), 4 mM final in the reaction, and the transporter substrate and inhibitor. Each experiment included triplicate samples for both ATP and AMP samples. The concentrations of rosuvastatin and N‐methyl‐quinidine were 1 μM in the BCRP and P‐gp vesicle inhibition assays, respectively. […] The transport reactions were quenched by adding 200 μL of cold TS‐buffer to each well and transferring the samples to a 96‐multiwell 1.0 μm glass fiber filter plate (Merck Millipore, Darmstadt, Germany) kept under vacuum. Wells were further washed four times with cold TS‐buffer, after which the plate was dried under vacuum. The compounds were eluted from the plate by applying 100 μL of 75% methanol containing 0.1% formic acid to each well and incubating at 250 RPM for 30 min before centrifuging the samples to an analysis plate at 2800 g for 2 min. For the rosuvastatin samples, the elution solvent contained rosuvastin‐d6 as the internal standard. […]

Series [3] has as its system T3, MRP4.
T3 construct: expressed in transfected cells; host or cells: HEK293 cells
Put plainly: Efflux transport assay in MRP4 HEK293 membrane vesicles. Format: biochemical, human. Conditions: 5 and 50 µM, 10 min.

T2 sequence (P08183 whole entry): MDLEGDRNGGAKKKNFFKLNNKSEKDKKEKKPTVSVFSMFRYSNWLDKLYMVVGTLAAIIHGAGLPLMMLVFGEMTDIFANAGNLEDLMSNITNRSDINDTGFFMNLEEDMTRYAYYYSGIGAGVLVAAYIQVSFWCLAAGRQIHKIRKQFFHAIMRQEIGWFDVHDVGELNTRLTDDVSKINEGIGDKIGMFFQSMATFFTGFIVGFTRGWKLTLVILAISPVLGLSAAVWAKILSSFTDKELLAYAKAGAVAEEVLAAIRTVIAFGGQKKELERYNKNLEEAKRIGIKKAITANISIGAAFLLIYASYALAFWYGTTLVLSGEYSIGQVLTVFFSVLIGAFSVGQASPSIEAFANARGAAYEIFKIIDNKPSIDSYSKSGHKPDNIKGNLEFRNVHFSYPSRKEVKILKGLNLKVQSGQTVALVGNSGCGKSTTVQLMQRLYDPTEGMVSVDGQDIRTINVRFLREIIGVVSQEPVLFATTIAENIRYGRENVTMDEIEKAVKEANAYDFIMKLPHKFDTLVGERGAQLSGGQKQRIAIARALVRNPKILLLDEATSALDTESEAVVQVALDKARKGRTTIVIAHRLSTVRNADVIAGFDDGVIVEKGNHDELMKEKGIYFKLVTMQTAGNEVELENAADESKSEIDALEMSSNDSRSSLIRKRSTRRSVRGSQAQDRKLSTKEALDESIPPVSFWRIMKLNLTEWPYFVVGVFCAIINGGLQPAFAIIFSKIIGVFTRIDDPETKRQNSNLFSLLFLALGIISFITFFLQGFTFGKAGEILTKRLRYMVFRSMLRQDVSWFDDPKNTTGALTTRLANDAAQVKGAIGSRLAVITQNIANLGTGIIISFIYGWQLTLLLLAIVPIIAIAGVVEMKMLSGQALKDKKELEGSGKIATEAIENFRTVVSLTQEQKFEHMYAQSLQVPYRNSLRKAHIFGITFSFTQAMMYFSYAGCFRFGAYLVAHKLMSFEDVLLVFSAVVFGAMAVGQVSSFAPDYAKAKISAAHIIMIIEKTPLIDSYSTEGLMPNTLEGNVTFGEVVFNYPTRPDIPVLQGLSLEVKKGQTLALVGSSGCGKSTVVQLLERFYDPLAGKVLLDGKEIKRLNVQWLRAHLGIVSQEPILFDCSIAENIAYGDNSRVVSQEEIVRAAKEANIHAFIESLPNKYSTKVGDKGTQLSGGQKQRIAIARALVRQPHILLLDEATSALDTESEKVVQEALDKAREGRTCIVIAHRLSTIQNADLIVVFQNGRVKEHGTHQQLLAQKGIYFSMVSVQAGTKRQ

Regarding `Cc1onc(-c2c(Cl)cccc2Cl)c1C(=O)N[C@@H]1C(=O)N2[C@@H]1SC(C)(C)[C@@H]2C(=O)O` [Dicloxacillin], the IC50 in series [1] (IC50 (95% CI), μM OAT4, 34 nM methotrexate, 10 min, no preincubation) was 7.2 µM and 7.23 µM. Further, the “Calculated R-value OAT4” value in series [1] is 0.19 ^d. Moreover, in series [2], the “transport by P-gp” value is recorded as “did not transport”. For the same compound, in series [3], the “transport by MRP4” value was “did not transport”.

In the case of `Cc1onc(-c2c(F)cccc2Cl)c1C(=O)N[C@@H]1C(=O)N2[C@@H]1SC(C)(C)[C@@H]2C(=O)O` [Flucloxacillin], the “Calculated R-value OAT4” value in series [1] is 0.08 ^d. Moreover, the “transport by P-gp” value in series [2] is reported as “did not transport”. For the same compound, the “transport by MRP4” value in series [3] is reported as “did not transport”.
